One block for each molecule: values may come before it.
What was measured:
ER-VP16 = ER-VP16 reporter of nuclear localization and DNA binding status of ER; format: cell-based
Excerpt: This was addressed using a modified ER (ER-VP16) to report on the nuclear localization and the DNA binding status of ER within a cell following ligand binding. This modified protein behaves exactly like ER in all respects except it activates transcription upon interaction with an estrogen response element (ERE) independent of the nature of the bound ligand (McDonnell et al, Mol. Endocrinol. 9:659-669 (1995)).

[1] = molecular target: T1, wild-type human estrogen receptor (ERwt) (Homo sapiens, UniProt P03372); assay: C3 promoter-luciferase cotransfection assay in HepG2 cells, ERwt; format: cell-based
T1 construct: expressed in transfected cells; host or cells: HepG2
T1 sequence (P03372 1-595): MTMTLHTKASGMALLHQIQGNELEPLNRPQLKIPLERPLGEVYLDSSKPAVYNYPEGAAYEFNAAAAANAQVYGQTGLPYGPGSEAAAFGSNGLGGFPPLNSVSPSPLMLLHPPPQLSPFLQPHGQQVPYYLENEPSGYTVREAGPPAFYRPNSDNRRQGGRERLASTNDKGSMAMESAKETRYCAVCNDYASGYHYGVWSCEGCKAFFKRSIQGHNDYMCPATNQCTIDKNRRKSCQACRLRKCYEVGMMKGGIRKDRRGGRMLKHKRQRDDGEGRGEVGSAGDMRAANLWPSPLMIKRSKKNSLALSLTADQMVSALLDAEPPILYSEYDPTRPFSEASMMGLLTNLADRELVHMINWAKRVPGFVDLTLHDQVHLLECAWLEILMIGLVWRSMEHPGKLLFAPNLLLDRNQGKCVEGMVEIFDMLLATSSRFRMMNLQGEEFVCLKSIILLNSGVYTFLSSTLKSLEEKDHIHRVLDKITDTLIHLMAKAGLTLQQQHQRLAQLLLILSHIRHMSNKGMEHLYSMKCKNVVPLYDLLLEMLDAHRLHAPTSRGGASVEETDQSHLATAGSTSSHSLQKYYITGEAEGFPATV
Excerpt: (§1) FIGS. 1A and 1B. […] The human C3 promoter (−1807 to +58) fused to the firefly luciferase reporter gene was transfected along with an expression plasmid containing (FIG. 1A) the wild-type human estrogen receptor (ERwt), or (FIG. 1B) a mutated ER in which the AF-2 function had been disrupted (ER-TAFl) into HepG2 cells and tested for transcriptional activation in the presence of increasing concentrations of ER-modulator as indicated. Transfections were normalized for efficiency and cell number by cotransfecting an expression plasmid containing β-galactosidase. The normalized response was obtained by dividing light units by the activity of β-galactosidase as measured in an enzymatic assay. Triplicate transfections were performed. The data shown are representative of multiple experiments performed under similar conditions.
(§2) FIGS. 2A-2C. […] FIG. 2A. […] FIG. 2B. […] FIG. 2C. […] Transfections were normalized for efficiency and cell number by cotransfecting an expression plasmid containing β-galactosidase. The normalized response was obtained by dividing light units by the activity of β-galactosidase as measured in an enzymatic assay. Representative assays are shown in which triplicate transfections were performed. Error bars represent the standard error of the mean (SEM).
(§3) HepG2 cells were maintained in Modified Eagles Medium (MEM) (Life Technologies, Grand Island, N.Y.) plus 10% Fetal Calf Serum (FCS) (Life Technologies). Cells were plated in 24 well plates (coated with gelatin) 24 hours prior to transfection. DNA was introduced into the cells using Lipofectin (Life Technologies). Briefly, triplicate transfections were performed using 3 μg of total DNA. For standard transfections, 500 ng of pCMV-β-Gal (normalization vector), 1500 ng reporter (variable) and 1000 ng receptor (pRST7-hER (Dana et al, Mol. Endocrinol. 8:1193-1207 (1994)) were used for each triplicate. Incubation of the cells with Lipofectin proceeded for 3 hrs, at which time media was removed, cells were washed with PBS and then induced with the appropriate hormone diluted in phenol red-free media containing 10% charcoal stripped CS (Cyclone Inc.). Incubation with hormone continued for 48 hrs, after which cells were lysed and assayed for luciferase and β-galactosidase activity as previously described (Norris et al, JBC 270:22777-22782 (1995)).
(§4) A series of in vitro screens have been developed that permit the classification of ER-modulators into four mechanistically distinct groups (Tzukerman et al, Mol. Endocrinol. 8:21-30 (1994)). […] Using these assays, it has been possible to derive “fingerprints” of known ER-modulators (McDonnell et al, Mol. Endocrinol. 9:659-669 (1995)).
(§5) Subsequently, the transfected cells were assayed for luceriferase and β-galactosidase activity. Each data point in this experiment represents the average of triplicate determinations of the transcriptional activity under given experimental conditions.

human ER = molecular target: T2, human ER (Homo sapiens, UniProt P03372); format: cell-based; conditions: MCF-7 cells, in the presence of 17-β-estradiol, 48 h, FIG. 12
T2 construct: expressed in transfected cells; host or cells: MCF-7

ER-TAF1 = assay: C3 promoter-luciferase cotransfection assay in HepG2 cells, ER-TAF1 (AF-2 disrupted); format: cell-based, human; conditions: for agonist activity on ER-TAF1: ER-TAF1, compound alone, FIG. 1B
Excerpt: as §1, §2, §3, §4, §5

ERβ = ERβ (Homo sapiens, UniProt Q92731); conditions: HeLa cells, estradiol (10^−9), FIG. 14B
Excerpt: (§6) HeLa cells were transfected with either an ERα expression vector (see FIG. 14A) or an ERβ expression vector (see FIG. 14B) together with an estrogen responsive ERE-TK-luceriferase reporter construct.

MCF-7 cells = assay: [3H]-thymidine incorporation, E2 stimulated MCF-7 cell proliferation; format: cell-based, human; conditions: FIG. 19
Experimental: Experimental Design: Plate between 25,000 and 50,000 cells per well onto 24-well plates. Cells are plated in phenol red-free media. After attachment, cells are stimulated with either antiestrogen alone or estrogen and antiestrogen. Induction time ranges from 12-48 hours, depending on experiment.
Add 4λ (4 μCi) thymidine, [methyl-^3H]-to each well.
Incubate at 37° C. for 2-4 hours.
Aspirate media and wash twice with ice cold PBS.
Wash once with ice cold 10% TCA (trichloroacetic acid).
Add 2 mL 10% TCA to each well.
Incubate at 4° C. for 1-2 hours.
Transfer each well to scintillation vial containing 2 mL scintillation fluid.

ERα = molecular target: T3, ERα (Homo sapiens, UniProt P03372); format: cell-based; conditions: HeLa cells, estradiol (10^−9), FIG. 14A
T3 construct: expressed in transfected cells; host or cells: HeLa
Excerpt: as §6

[2] = Bone mineral density in ovariectomized rats (DEXA, pQCT); format: in vivo, rat; conditions: 90-day old OVX rats, oral, 28 days, FIG. 3A
Experimental: FIGS. 3A and 3B. […] FIG. 3A. […] FIG. 3B.
Animal preparation. […] At sacrifice, animals were euthanized with C02, body weights were recorded and the uteri were removed and weighed. Uterus, vagina and mammary tissue were fixed in 10% neutral buffered formalin. Samples for histologic processing were taken from the mid-point of each uterine horn. Tissue samples were embedded in paraffin, stained with haematoxylin and eosin and evaluated microscopically. Lumbar vertebrae and both left and right tibiae were excised. Total blood cholesterol was measured (Roche Biomedical Laboratories).

MCF-7/LCC2 = assay: LCC2 study, MCF-7/LCC2 tumors in nude mice; format: in vivo, mouse; conditions: after 8 weeks, 1.0 mg every three days, FIG. 11
Experimental: This experiment was conducted to determine the ability of GW5638 to retard the growth of this cell line in nude mice relative to control or tamoxifen treated tumors.
40 OVX mice were prepared to accept cells and grouped as follows:
Control animals received nothing and groups 3 and 4 received 0.1 ml injections in corn oil every three days. Tumors were measured Q3 days with calipers, and the area calculated as follows: Area=½×w/2×π.

[3] = Uterotrophic assay in immature rats; conditions: 21 day old immature rats, oral
Experimental: FIG. 5. […] The data shown represent the mean value (±SEM).
Twenty-one day old female Sprague-Dawley rats (30-35 gms) were obtained from Harlan or Taconic Laboratories. Animals were sorted randomly into treatment groups of five, and average weights were recorded for each treatment group. Weights were recorded on each treatment day. […] On day of dosing, drug was diluted in 0.5% methyl cellulose, viscosity of 2% at 25° C.:400 centipoises (Sigma, St. Louis, Mo.)). Oral dosing by gavage was based on a total volume of 10 ml/kg body weight. […] Subcutaneous dosing was based on a total of 2 ml/kg body weight. […] On day 4, animals were sacrificed by C02 asphyxiation, body weights were obtained and uteri were removed, blotted and weighed. Data were expressed as uterine weight/body weight.
In this assay, uterine wet weight was used as a measure of ER-agonist activity in this tissue (FIG. 5).

Sequence of ERβ (Q92731 whole entry): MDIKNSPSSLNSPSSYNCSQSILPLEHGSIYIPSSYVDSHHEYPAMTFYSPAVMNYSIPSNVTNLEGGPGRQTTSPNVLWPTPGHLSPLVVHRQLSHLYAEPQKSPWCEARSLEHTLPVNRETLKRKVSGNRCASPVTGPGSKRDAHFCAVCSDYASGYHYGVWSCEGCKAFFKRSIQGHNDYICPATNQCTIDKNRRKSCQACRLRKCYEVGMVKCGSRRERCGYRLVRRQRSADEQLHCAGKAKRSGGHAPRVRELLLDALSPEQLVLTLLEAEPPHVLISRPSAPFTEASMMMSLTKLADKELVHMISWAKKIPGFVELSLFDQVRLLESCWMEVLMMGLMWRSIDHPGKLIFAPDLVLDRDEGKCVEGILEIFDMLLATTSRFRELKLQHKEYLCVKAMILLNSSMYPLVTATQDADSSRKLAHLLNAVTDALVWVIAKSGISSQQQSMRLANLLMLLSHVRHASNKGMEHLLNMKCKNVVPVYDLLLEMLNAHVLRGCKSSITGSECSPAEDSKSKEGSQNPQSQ

SMILES: CC/C(=C(\c1ccc(O)cc1)c1ccc(/C=C/C(=O)O)cc1)c1ccccc1 [GW7604]
- interaction of ER with target DNA (ER-VP16): facilitate efficient interactions of ER with target DNA
- reversal of the inverse agonist activity of ICI182,780 ([1]; C3 promoter, co-addition with ICI182,780, FIG. 2C): completely reversed
- inhibition of the agonist activity manifested by tamoxifen or estradiol ([1]; ERwt, 10^−8M 17-β-estradiol or tamoxifen, FIG. 2A): inhibited
- agonist / inverse agonist activity on the C3 promoter ([1]; ERwt, compound alone, FIG. 1A/2A): do not demonstrate any agonist or antagonist activity
- antiestrogen activity on C3-Luc transcription (human ER): Functions as an Antiestrogen
- inhibition of the partial agonist activity of raloxifene on ER-TAF1 (ER-TAF1; ER-TAF1): inhibited
- inhibition of estradiol- and tamoxifen-induced ER-TAF1 transcriptional activity (ER-TAF1; ER-TAF1, FIG. 2B): capable of inhibiting
- agonist activity on ER-TAF1 (ER-TAF1): functionally inactive
- agonist activity on ER mutants (ER-TAF1; any ER-mutant examined, FIG. 13): does not exhibit agonist activity
- inhibition of estradiol activated transcription, ERβ (ERβ): potent pan-antagonist of both forms of the human estrogen receptor
- E2 stimulated MCF-7 cell proliferation (MCF-7 cells): Inhibits E2 Stimulated MCF-7 Cell Proliferation
- inhibition of estradiol activated transcription, ERα (ERα): potent pan-antagonist of both forms of the human estrogen receptor

SMILES: C[C@]12CC[C@@H]3c4ccc(O)cc4C[C@@H](CCCCCCCCC[S+]([O-])CCCC(F)(F)C(F)(F)F)[C@H]3[C@@H]1CC[C@@H]2O (stereo partly drawn) [ICI182,780, reference compound]
- interaction of ER with target DNA (ER-VP16): facilitate efficient interactions of ER with target DNA
- agonist activity on ER-TAF1 (ER-TAF1): functionally inactive

SMILES: C[C@]12CC[C@@H]3c4ccc(O)cc4CC[C@H]3[C@@H]1CC[C@@H]2O [estradiol, 17β-estradiol, reference compound]
- bone mineral density, lumbar spine [2]: BMD was maintained

SMILES: O=C(c1ccc(OCCN2CCCCC2)cc1)c1c(-c2ccc(O)cc2)sc2cc(O)ccc12 [raloxifene, reference compound]
- inhibition of estradiol activated transcription, ERβ (ERβ): neither raloxifene nor idoxifene manifest potent antagonist activity

- lowest dose with uterotrophic activity [3]: 0.1 µmol/kg/day
SMILES: CC/C(=C(\c1ccccc1)c1ccc(OCCN(C)C)cc1)c1ccccc1 [tamoxifen, reference compound]
- tumor growth (MCF-7/LCC2): equally inhibit growth of this tumor

Reference: patent publication US7307102B2, “Method of preventing or treating estrogen-dependent diseases and disorders” (Duke University, priority 1997, dated 2007)
